{"source": "patent US8324197B2", "about": "“Transplatinum complexes with N2O2 donor sets as cytotoxic and antitumor agents” (Virginia Commonwealth University, priority 2005, dated 2012)", "key": {"[1]": {"assay": "Solubility of TPA carboxylates, Example 6", "assay_type": "physicochemical", "settings": "aqueous; table title ambient temperature, text 37° C."}, "[2]": {"test_system": "guanosine-5′-monophosphate (5′-GMP, model for DNA)", "assay": "Reaction with 5′-GMP followed by 195Pt NMR", "settings": "within 24 h", "source_text": "The slow hydrolysis is a unique feature of two carboxylate ligands in a trans-axial position and can be modulated by choice of carboxylate. To examine how this might affect possible reactions with biomolecules, a preliminary study of the reactions of 4e with guanosine-5′-monophosphate (5′-GMP, model for DNA) and N-acetyl-L-methionine (N-AcMet, model for sulfur ligand metabolism) was made by ^195Pt NMR Spectroscopy. In the case of 5′-GMP the peak of the starting material at −1450 ppm is only gradually replaced by a new peak at −2365 ppm. This shift is consistent with the formation of a species that has a PtN4 coordination sphere,^26 due to replacement of both formate groups. Approximately 50% reaction (as judged by the intensity of the ^1H H8 signal and ^195Pt NMR signals), occurred within 24h. For N-AcMet the starting material was approximately 50% of total intensity even after 8 h. […] The chemical shift is consistent with a PtN2O2 coordination sphere—this could arise from displacement of formate by H2O/OH or an O-bound methionine.^27 This species preceded the formation of the N-AcMet product at −3320 ppm consistent with a PtN2S2 coordination sphere, trans-[Pt(NH3)(4-pic)(NAcMet)2],^23,28 which was 40% of the total platinum species after 10 h. […]"}, "[3]": {"assay": "Initial hydrolysis of TPA carboxylates monitored by HPLC at 37° C.", "assay_type": "physicochemical", "settings": "H2O, I=0.02 M", "procedure": "The slowest initial hydrolysis rate was found for complex 2c t-[Pt(OAc)2(NH3)(2-pic)], with just 4% hydrolysis occurring after 9 h. The hydrolysis of the formate complex 4f was the fastest, with 24% hydrolysis occurring after 9 h. The hydrolysis rates of the acetate complexes followed the pattern 2c<4c<3c. […] Thus, hydrolysis of the acetate complexes is slowed by an approximate order of magnitude compared to their direct chloro analogs but there is little difference in the present case between 3- and 4-picoline. Steric hindrance therefore predominates over the electronic effects of the methyl group. In the case of the chloride complexes, the 3-pic directs less electron density to the platinum rendering it less nucleophilic relative to the 2-pic and 4-pic. 14 We observe the same trend in the acetate complexes, but the effect is lessened due to the carboxylate group being a weak ligand, with a low trans influence and trans effect.^11"}, "[4]": {"test_system": "human ovarian cancer cell line A2780", "assay": "MTT growth inhibition assay", "assay_type": "cell-based", "settings": "72 h", "source_text": "• (1) Van Beusichem, M.; Farrell, N. Inorg. Chem. 1992, 31, 634-639. • (2) Farrell, N.; Kelland, L. R.; Roberts, J. D.; Van Beusichem, M. Cancer Res. 1992, 52, 5065-5072. • (3) Farrell, N. Cancer Invest. 1993, 11, 578-589. • (4) Coluccia, M.; Nassi, A.; Loseto, F.; Boccarelli, A.; Mariggio, M. A.; Giordano, D.; Intini, F. P.; Caputo, P.; Natile, G. J. Med. Chem. 1993, 36, 510-512. • (5) Khazanov, E.; Barenholz, Y.; Gibson, D.; Najajreh, Y. J. Med. Chem. 2002, 45, 5196-5204. • (6) Najajreh, Y.; Perez, J. M.; Navarro-Ranninger, C.; Gibson, D. J. Med. Chem. 2002, 45, 5189-5195. • (7) Montero, E. I.; Diaz, S.; Gonzalez-Vadillo, A. M.; Perez, J. M.; Alonso, C.; Navarro-Ranninger, C. J. Med. Chem. 1999, 42, 4264-4268. • (8) Natile, G.; Coluccia, M. Coord. Chem. Rev. 2001, 216-217, 383-410. • (9) Fojo, T.; Farrell, N.; Ortuzar, W.; Tanimura, H.; Weinstein, J.; Myers Timothy, G. I Crit. Rev. Oncol./ Hematol. 2005, 53, 25-34. • (10) Murphy, R. F.; Farrell, N.; Aguila, A.; Okada, M.; Balis, F. M.; Fojo, T. Proc. Am. Assoc. […] IC50 values were determined graphically"}, "[5]": {"assay": "Reaction with N-AcMet followed by 195Pt NMR", "source_text": "The slow hydrolysis is a unique feature of two carboxylate ligands in a trans-axial position and can be modulated by choice of carboxylate. To examine how this might affect possible reactions with biomolecules, a preliminary study of the reactions of 4e with guanosine-5′-monophosphate (5′-GMP, model for DNA) and N-acetyl-L-methionine (N-AcMet, model for sulfur ligand metabolism) was made by ^195Pt NMR Spectroscopy. In the case of 5′-GMP the peak of the starting material at −1450 ppm is only gradually replaced by a new peak at −2365 ppm. This shift is consistent with the formation of a species that has a PtN4 coordination sphere,^26 due to replacement of both formate groups. Approximately 50% reaction (as judged by the intensity of the ^1H H8 signal and ^195Pt NMR signals), occurred within 24h. For N-AcMet the starting material was approximately 50% of total intensity even after 8 h. […] The chemical shift is consistent with a PtN2O2 coordination sphere—this could arise from displacement of formate by H2O/OH or an O-bound methionine.^27 This species preceded the formation of the N-AcMet product at −3320 ppm consistent with a PtN2S2 coordination sphere, trans-[Pt(NH3)(4-pic)(NAcMet)2],^23,28 which was 40% of the total platinum species after 10 h. […] Whether the possible formation of an O-bound methionine species is a reflection of the low pKal and the electronic effects of a π-acceptor ligand is worthy of further investigation."}, "[6]": {"settings": "literature values of other platinum compounds; cited from earlier work"}, "[7]": {"settings": "literature; cited from earlier work"}, "[8]": {"assay": "pKa of corresponding TPA diaqua complexes by potentiometric titration with NaOH", "assay_type": "physicochemical", "settings": "corresponding diaqua complex trans-[Pt(OH2)2(L)(L′)], ambient temperature", "procedure": "(§1) The aqueous solubility of the acetate compounds and the acid dissociation constants of the corresponding aqua species are given in Table 1. Use of acetates enhances aqueous solubility which is dependent on the exact nature of the donor ligands. The pKa values were determined by potentiometric titration of solutions of trans-[Pt(H2O)2(L)(L′)]^2+ (formed by the dissolution of the isolated trans-[Pt(NO3)2(L)(L′)]) with NaOH. […] (X=2,3,4-Me).^30"}, "[9]": {"assay": "Aqueous solubility of TPA-acetate complexes (sequential addition of water)", "assay_type": "physicochemical", "settings": "ambient temperature", "procedure": "as §1"}, "[10]": {"test_system": "ovarian cancer cell line panel", "assay": "Cytotoxicity in ovarian cancer cell line panel (cell line not specified)", "assay_type": "cell-based, human", "procedure": "(§2) It is noteworthy that the acetate compounds maintain cytotoxicity with low resistance factors in all cases. The trans-[Pt(OAc)2(NH3)2] compound is also very water-soluble but the cytotoxicity of >100 μM confirms the requirement for a planar amine to enhance cytotoxicity in the trans geometry."}, "[11]": {"assay": "Hydrolysis (first aquation step) followed by HPLC, Example 5", "assay_type": "physicochemical", "settings": "nanopure water", "procedure": "For hydrolysis studies, […] complex was dissolved in 1 mL of nanopure water. The pH values of the samples were controlled in regular intervals and readjusted if necessary by addition of HNO3 (1 M, 0.1 M, 0.01 M) or NaOH (1 M, 0.1 M, 0.01 M). Aliquots of 20 μL were taken from the bulk solution for HPLC analysis. The overall scheme may be described as follows:\nThe aquated species were identified by comparison with the hydrolysis profile produced by the corresponding (labile) nitrate compounds. The rate constants for the first aquation step k1 are given in Table 2 and compared with other platinum complexes containing one or two labile ligands. […] In particular, these rates are 2-3 orders of magnitude lower than that of transplatin itself. The rate of aquation tends toward that of carboplatin which in phosphate buffer at 310 K gave a hydrolysis rate of 7.2×10^−7 s^−1 (but in aqueous solution gives a barely measurable rate constant of <5×10^−9 s^−1, which is modulated by the presence of buffer, nucleophile or acid). ^31,32No evidence for formation of Pt(TV) species during hydrolysis is detected under these conditions.^33"}, "41M": {"test_system": "41M", "assay": "Growth inhibition in human ovarian cancer cell line panel, 96 h exposure", "assay_type": "cell-based", "procedure": "as §2"}, "A2780": {"test_system": "A2780", "assay": "Growth inhibition in human ovarian cancer cell line panel, 96 h exposure", "assay_type": "cell-based", "procedure": "as §2"}, "CH1": {"test_system": "CH1", "assay": "Growth inhibition in human ovarian cancer cell line panel, 96 h exposure", "assay_type": "cell-based", "procedure": "as §2"}, "[12]": {"settings": "RF = (IC50 Resistant)/(IC50 Sensitive)"}}, "note": "Read-outs that look alike come from different tables or passages of the source. Marks after values point to notes of the source that are not given here.", "data": [{"smiles": "Cc1ccncc1.N.O=C[O-].O=C[O-].[Pt+2]", "note": "[4e, trans-[Pt(OFm)2(NH3)(4-pic)]]", "values": [{"measurement": "Solubility (mg/mL), TPA Substituted Carboxylates", "setting": "[1]", "result": 35, "unit": "mg/mL"}, {"measurement": "reaction with 5′-GMP (by 1H H8 and 195Pt NMR signal intensity)", "setting": "[2]", "result": "Approximately 50%"}, {"measurement": "k1, initial hydrolysis rate constant", "setting": "[3]", "result": "1.07e-05", "unit": "s⁻¹"}, {"measurement": "cytotoxicity (growth inhibition)", "setting": "[4]", "result": "most cytotoxic"}, {"measurement": "starting material remaining, of total intensity", "setting": "[5]; after 8 h", "result": "Approximately 50%"}, {"measurement": "N-AcMet product at −3320 ppm (PtN2S2), of total platinum species", "setting": "[5]; after 10 h", "result": 40, "unit": "%"}, {"measurement": "new species at −1775 ppm (PtN2O2), of total reaction product", "setting": "[5]; over 10 h", "result": "≤ 15", "unit": "%"}]}, {"smiles": "N.N.[Cl][Pt+2][Cl]", "note": "[Transplatin, trans-[PtCl2(NH3)2]]", "values": [{"measurement": "k1, rate constant for the first aquation step", "setting": "[6]", "result": 0.00019, "unit": "s⁻¹"}, {"measurement": "time to complete reaction with N-AcMet", "setting": "[7]", "result": "≤ 5", "unit": "h"}]}, {"smiles": "CC(=O)[O][Pt][O]C(C)=O.N.N", "note": "[trans-[Pt(OAc)2(NH3)2]]", "values": [{"measurement": "pKa1", "setting": "[8]", "result": "4.0^b"}, {"measurement": "pKa2", "setting": "[8]", "result": 7.08}, {"measurement": "Solubility", "setting": "[9]", "result": 21, "unit": "mg/mL"}, {"measurement": "IC50", "setting": "[10]", "result": "> 100", "unit": "µM"}]}, {"smiles": "CC(=O)[O-].CC(=O)[O-].N.[Pt+2].c1ccc2cnccc2c1", "note": "[trans-[Pt(OAc)2(NH3)(iquin)], trans-[diacetato(ammine)(isoquinoline)platinum(II)]]", "values": [{"measurement": "k1, rate constant for the first aquation step", "setting": "[11]", "result": "(7.4 ± 1.5) × 10^−7 s^−1"}, {"measurement": "pKa1", "setting": "[8]", "result": 3.78}, {"measurement": "pKa2", "setting": "[8]", "result": 6.92}, {"measurement": "Solubility", "setting": "[9]", "result": 5.2, "unit": "mg/mL"}, {"measurement": "IC50", "setting": "41M", "result": 22, "unit": "µM"}, {"measurement": "41M RF", "setting": "41M; [12]", "result": "(0.26)"}, {"measurement": "IC50", "setting": "A2780", "result": 13, "unit": "µM"}, {"measurement": "A2780 RF", "setting": "A2780; [12]", "result": "(1.69)"}, {"measurement": "IC50", "setting": "CH1", "result": 20, "unit": "µM"}, {"measurement": "CH1 RF", "setting": "CH1; [12]", "result": "(0.37)"}]}]}
